The results in this text go back to ChEMBL document CHEMBL3763138, “Synthesis and bioactivity of novel triazole incorporated benzothiazinone derivatives as antitubercular and antioxidant agent” (Bioorg Med Chem Lett, 2016).

Molecules are shown by their SMILES. In brackets after ≈: the same amount, converted by molar mass.

The subject of series [1] is Mycobacterium tuberculosis. Put plainly: Antitubercular activity against Mycobacterium tuberculosis H37Ra ATCC 25177 at 30 ug/ml by XTT Reduction Menadione Assay. It counts as functional. For orientation: Tetrazolium assays rely on reduction of a dye to a coloured formazan, in cell work by metabolically active cells.
Series [2] relates to Mycobacterium tuberculosis. The series can be described thus: Antitubercular activity against Mycobacterium tuberculosis H37Ra ATCC 25177 at 10 ug/ml by XTT Reduction Menadione Assay. Type of series: functional.
Series [3] has as its system Mycobacterium tuberculosis. The series can be described thus: Antitubercular activity against Mycobacterium tuberculosis H37Ra ATCC 25177 at 3 ug/ml by XTT Reduction Menadione Assay. Type of series: functional.
Series [4] can be described thus: Antioxidant activity assessed as DPPH radical scavenging activity by spectrophotometric assay. Type of series: physicochemical. On the technique in general: DPPH is a stable violet radical that fades when it is reduced.
Series [5] has as its system Mycobacterium tuberculosis. The series can be described thus: Antitubercular activity against Mycobacterium tuberculosis H37Ra ATCC 25177 by XTT Reduction Menadione Assay. Type of series: functional, organism-based.
The subject of series [6] is A549. Put plainly: Antiproliferative activity against human A549 cells at 30 ug/ml after 48 hrs by MTT assay. Type of series: cell-based. The note with it: a549, 48 h.
For series [7], the system named is A549. The series can be described thus: Antiproliferative activity against human A549 cells at 10 ug/ml after 48 hrs by MTT assay. It counts as cell-based. The note with it: a549, 48 h.
Series [8] deals with A549. The series can be described thus: Antiproliferative activity against human A549 cells at 3 ug/ml after 48 hrs by MTT assay. Type of series: cell-based. The conditions noted are these: a549, 48 h.
In series [9] the test system is A-431. The series can be described thus: Antiproliferative activity against human A431 cells at 30 ug/ml after 48 hrs by MTT assay. Type of series: cell-based. The note with it: a-431, 48 h.
Series [10] has as its system A-431. Put plainly: Antiproliferative activity against human A431 cells at 10 ug/ml after 48 hrs by MTT assay. The note with it: a-431, 48 h. Type of series: cell-based.
Series [11] relates to A-431. The series can be described thus: Antiproliferative activity against human A431 cells at 3 ug/ml after 48 hrs by MTT assay. It counts as cell-based. The conditions noted are these: a-431, 48 h.
Series [12] relates to HeLa. Put plainly: Antiproliferative activity against human HeLa cells at 30 ug/ml after 72 hrs by MTT assay. Type of series: cell-based.
The test system of series [13] is HeLa. The series can be described thus: Antiproliferative activity against human HeLa cells at 10 ug/ml after 72 hrs by MTT assay. It counts as cell-based.
Series [14] deals with HeLa. Put plainly: Antiproliferative activity against human HeLa cells at 3 ug/ml after 72 hrs by MTT assay. It counts as cell-based.
A short description of series [15]: (§1) Cytotoxicity against human A549 cells assessed as growth inhibition after 48 hrs by MTT assay. It counts as cell-based. The conditions noted are these: A549 cells.
Series [16] concerns A549. The description is as §1. It counts as cell-based. The conditions noted are these: a549, 48 h.
Series [17] in a line: (§2) Cytotoxicity against human HeLa cells assessed as growth inhibition after 72 hrs by MTT assay. It counts as cell-based. The note with it: HeLa cells.
Series [18] deals with HeLa. The description is as §2. Type of series: cell-based. The note with it: hela, 72 h.
The nature of series [19]: Cytotoxicity against human A431 cells assessed as growth inhibition after 48 hrs by MTT assay. Type of series: cell-based, A-431.
Series [20] in a line: Selectivity index, ratio of GI50 for human HeLa cells to MIC for Mycobacterium tuberculosis H37Ra ATCC 25177. Type of series: toxicity, cell-based. The conditions noted are these: pooled result: one value given for 3 cell lines, strains, targets or settings, read-out: Selectivity Index.
The nature of series [21]: Selectivity index, ratio of GI50 for human HeLa cells to MIC for Mycobacterium bovis BCG ATCC 35743. Type of series: toxicity, cell-based. The conditions noted are these: pooled result: one value given for 3 cell lines, strains, targets or settings, read-out: Selectivity Index.

What is called inhibition is the change of the read-out against control, counted positive when it falls. A high value points to a response far below the control. The term IC50 denotes the point on the concentration scale where inhibition reaches its midpoint. Usually GI50 stands for the concentration at which growth is held to half of that of the control. Take `O=C1CSc2ccccc2N1Cc1cn(Cc2ccc(F)cc2)nn1`: in series [1], 30 µg/mL produced 91.3% inhibition. At 10 µg/mL the inhibition in [2] was 77.5%. This compound also returned an inhibition at 3 µg/mL in series [3] of 73.8%. Further, the IC50 in series [4] turned out to be 14.15 mg/L (≈ 39.9 µM); in series [5] it was 1.24 mg/L (≈ 3.5 µM). Besides, the MIC in [5] is 29.2 mg/L (≈ 82.5 µM); in [16], over 30 mg/L. Moreover, the Activity was 30.9% in series [6]; 4.1% in [7]; 12.32% in series [8]; 44.5% in [9]; 31.1% in series [10]; 17.3% in [11]. The Activity in series [12] turned out to be 51.3%; in [13] it was 46.3%; in series [14], 45.1%. Besides, the concentration for 50% growth inhibition (GI50) at 48 h in series [15] and in [19] was over 30 mg/L in each case. In series [17], the concentration for 50% growth inhibition (GI50) at 72 h is 28.6 mg/L (≈ 80.8 µM). Further, the GI50 in [18] was over 30 mg/L. Also, the results for the selectivity ratio in series [20] and in series [21] were 1.02 and 1.09, respectively.

For the compound `O=C1CSc2ccccc2N1Cc1cn(Cc2cccc(Cl)c2)nn1`, in series [1], at 30 µg/mL the inhibition was 94.2%. The inhibition at 10 µg/mL in series [2] came out at 66.6%. 3 µg/mL produced 8.6% inhibition in series [3]. For the same compound, the half-maximal inhibitory concentration (IC50) stood at 45.63 mg/L (≈ 123 µM) in series [4] and 8.03 mg/L (≈ 21.7 µM) in series [5]. The MIC in [5] is 27.3 mg/L (≈ 73.7 µM); in [16] it was over 30 mg/L. For the same compound, the Activity is 19.04% in series [6]; 3.31% in series [7]; 6.38% in series [8]; 4.4% in [9]; -13.7% in series [10]; -6.3% in [11]. The Activity in series [12] turned out to be 45.7%; in [13] it was 43.4%; in series [14], 52.3%. The 50% growth inhibitory concentration (GI50) at 48 h in series [15] and in series [19] was over 30 mg/L each time. Moreover, the GI50 at 72 h in series [17] was over 30 mg/L. Moreover, the GI50 in [18] was over 30 mg/L. For the same compound, the selectivity ratio is 1.1 in series [20] and 1.05 in series [21].
